Values of other authors, collected in patent US20230027198A1 (The Rockefeller University, priority 2019, published 2023).

How the values were obtained:
tumor = conditions: preclinical studies in mice; cited from earlier work
[1] = tested on: BET family of bromodomain proteins; conditions: cited from earlier work
[2] = tested on: myeloma tumors; leukemic engraftment of patient-derived primary samples; conditions: mice, cited from earlier work

SMILES: CCn1nc(C2CC2)cc1Nc1nc(C(=O)NCCCOCCOCCOCCCNc2cccc3c2C(=O)N(C2CCC(=O)NC2=O)C3=O)nc2[nH]c3cc(-c4c(C)noc4C)c(OC)cc3c12 (stereo not shown) [BET-d246]
- anti-tumor activity (tumor): strong anti-tumor activity

SMILES: Cc1sc2c(c1C)C(c1ccc(Cl)cc1)=N[C@@H](CC(=O)OC(C)(C)C)c1nnc(C)n1-2 [JQ1]
- inhibition of BET bromodomain proteins [1]: potent inhibitor

SMILES: COc1cc2c(cc1-c1c(C)noc1C)ncc1[nH]c(=O)n([C@H](C)c3ccccn3)c12 [I-BET 151]
- leukemic engraftment and disease burden ([2]; in vivo, patient-derived primary samples): impairs the leukemic engraftment of patient-derived primary samples and lowers the disease burden
- effect on myeloma tumors [2]: reduced myeloma tumors
